# Legend:
# [1] = system: Jurkat transformed T cell line; assay: Apoptosis by FACS, hypo-diploid nuclei PI staining, Jurkat cells; type: cell-based, human; details: Jurkat tumor line cells; 10 μg in ethanol solution
# Method: (§1) White bars (left bar of each pair) represent cells treated with 10 μg of amino-phenyl-acetic acid octadec-(Z)-9-enyl ester in ethanol solution, and black bars (right bar of each pair) represent cells treated with 10 μg of the control molecule 4-methyl-piperazino-acetic acid ethyl ester in ethanol solution. The two bars on the left represent freshly isolated T cells and the two bars on the right represent transformed Jurkat cells.
# (§2) B or T-cell apoptosis was detected by flow cytometry. Briefly, purified cells were seeded in 24 well plates, 5×10^5 per well, and incubated for 48 h at 37° C. 5% CO2 in the presence of HSP60 (heat shock protein 60) at the indicated concentration of amino-phenyl-acetic acid octadec-(Z)-9-enyl ester. […] The cells were then subjected to flow cytometric analysis; for each sample 10,000 were collected and cell-cycle distribution was analyzed according to relative DNA content (PI staining). […] The cells were then collected, stained by APO-DIRECT TUNNEL kit (Phnxflow, CITY, Calif., USA); mitochondrial potential was measured by DePsipher (R&D Systems, Minneapolis, Minn.) according to the manufacturer's procedure. Intracellular caspase activity was measured by Apostat kit (R&D Systems), according to the manufacturer's procedure. The cells were analyzed by Flow cytometry using FACSort (Becton Dickinson) and CellQuest software (Becton Dickinson).
# [2] = system: unstimulated CD3 positive T cells; assay: Microarray gene expression, unstimulated T cells; type: cell-based, human; details: for Fold change C16orf7: 205781_at; for Fold change TNFRSF17: 206641_at; for Fold change LILRB2 /// LILRB3: 210784_x_at; for Fold change CLEC11A: 211709_s_at; for Fold change WDR33: 218851_s_at
# Method: CD3 positive T cells were extracted from a healthy donor according to a standard protocol, and seeded in T cell medium including RPMI, 10% fetal calf serum, sodium pyruvate, L-Glutamine, and Penicillin/Streptomycin. Following an overnight incubation with medium, the cells were treated by incubating for 2 hours at 37° C. with amino-phenyl-acetic acid octadec-(Z)-9-enyl ester at a concentration of 10 micrograms/ml in a final volume of 10 ml in T-cell medium with or without 0.05% ethanol. After incubation, half the cells from each treatment were centrifuged and 2 ml of Tri-reagent (Sigma) were added to the pellet. The other half of the cells from each treatment were transferred to anti-CD3 antibody coated 24 well plates for an overnight incubation at 37° C. Coating plates with an anti-CD3 antibody was carried out by incubating with 2 micrograms/ml of OKT3 anti-CD3 antibody overnight at 4° C., washing three times with PBS and blocking with filtered 1% Bovine Serum Albumin for 1 hour. After activation with anti-CD3 antibody, cells were centrifuged and 2 ml of Tri-reagent were added to the pellet.
# RNA was extracted from unstimulated cells and from cells activated with anti-CD3 according to standard protocols and used for hybridization with a Human Genome U133A 2.0 (Affymetrix, Catalogue number 900468), according to the manufacturer's instructions. The results of the hybridization were read by a GeneChip scanner 3000 (Affymetrix) and analyzed by QuantArray (GSI lumonics).
# The effects of amino-phenyl-acetic acid octadec-(Z)-9-enyl ester in ethanol solution or in an aqueous vehicle (hereinafter termed “in PBS”) on gene expression in unstimulated T cells and T cells activated by anti-CD3 antibody were compared by microarray analysis.
# [3] = system: virulent 3LL clone, D122; assay: 3LL induced lung carcinoma, intravenous injection of D122 cells, deaths and lung weight; type: in vivo, mouse; details: for lung weight of the living mice: in mg (unit assumed); for number of dead mice: groups of 10, control seven
# Method: 8-weeks old C57BL/6 male mice in groups of 10 were injected intravenously with 500,000 cells of a virulent 3LL clone, D122. Mice were treated daily for 35 days with either 5% ethanol in PBS (control); 100 μg amino-phenyl-acetic acid octadec-(Z)-9-enyl ester in 5% ethanol in PBS subcutaneously (SC); or 100 μg amino-phenyl-acetic acid octadec-(Z)-9-enyl ester in 5% ethanol in PBS intranasally (IN).
# 8-weeks old C57BL/6 male mice in groups of 10 were injected intravenously with 500,000 cells of a virulent 3LL clone, D122. Mice either left untreated, or were treated daily for 30 days with intranasal administration of either 5% ethanol in PBS (control); 100 μg of amino-phenyl-acetic acid octadec-(Z)-9-enyl ester in PBS; or 100 μg of amino-phenyl-acetic acid octadec-(Z)-9-enyl ester in 5% ethanol in PBS.
# As shown in FIGS. 7A-7D, while treatment with amino-phenyl-acetic acid octadec-(Z)-9-enyl ester in PBS reduced the lung weight of the living mice from 718±351 in the control mice treated with 5% ethanol in PBS to 671±187 (FIGS. 7B-7C), treatment with amino-phenyl-acetic acid octadec-(Z)-9-enyl ester in ethanol solution reduced the lung weight of the living mice to 317±103 (FIG. 7D).
# [4] = system: human peripheral blood T cells; assay: Apoptosis by FACS, hypo-diploid nuclei PI staining, healthy T cells; type: cell-based; details: 10 μg in ethanol solution, versus control molecule
# Method: as §1, §2
# [5] = in ethanol solution vs untreated
# [6] = in ethanol solution vs untreated, data not shown
# [7] = 100 μg in 5% ethanol in PBS intranasally daily for 35 days
# [8] = 100 μg in 5% ethanol in PBS subcutaneously daily for 35 days
structure (smiles),measurement,setting,value
CCCCCCCC/C=C\CCCCCCCCOC(=O)C(N)c1ccccc1 (centres unmarked) [amino-phenyl-acetic acid octadec-(Z)-9-enyl ester],apoptosis,[1],100%
same,Fold change SYMPK,"[2]; 32402_s_at, in ethanol solution vs in PBS",2.03
same,Fold change HEY1,"[2]; 44783_s_at, in ethanol solution vs untreated",2.11
same,Fold change TPM2,"[2]; 204083_s_at, in ethanol solution vs untreated",2.39
same,Fold change CDC25A,"[2]; 204695_at, in ethanol solution vs in PBS",1.94
same,Fold change EPHB6,"[2]; 204718_at, in ethanol solution vs in PBS",2.019
same,Fold change RRAD,"[2]; 204802_at, in ethanol solution vs in PBS",2.27
same,Fold change C16orf7,[2]; in ethanol solution vs in PBS,2.54
same,Fold change C16orf7,[2]; [5],2.15
same,Fold change RASA3,"[2]; 206221_at, in PBS vs untreated",−2.23
same,Fold change FLJ23556,"[2]; 206548_at, in ethanol solution vs in PBS",1.94
same,Fold change TNFRSF17,[2]; in ethanol solution vs in PBS,2.08
same,Fold change TNFRSF17,[2]; [5],2.06
same,Fold change SPAG9,"[2]; 206748_s_at, in PBS vs untreated",−1.81
same,Fold change CRTC1,"[2]; 207159_x_at, in ethanol solution vs in PBS",1.96
same,Fold change TSPAN4,"[2]; 209263_x_at, in ethanol solution vs in PBS",2.24
same,Fold change SF3A2,"[2]; 209381_x_at, in ethanol solution vs untreated",1.95
same,Fold change TBC1D22A,"[2]; 210144_at, in ethanol solution vs untreated",2.03
same,Fold change LILRB2 /// LILRB3,[2]; in PBS vs untreated,−1.84
same,Fold change LILRB2 /// LILRB3,[2]; in ethanol solution vs in PBS,2.00
same,Fold change CLEC11A,[2]; in ethanol solution vs in PBS,2.10
same,Fold change CLEC11A,[2]; [5],2.19
same,Fold change BOP1 /// LOC727967,"[2]; 212563_at, in ethanol solution vs in PBS",1.94
same,Fold change ID2 /// ID2B,"[2]; 213931_at, in ethanol solution vs in PBS",2.04
same,Fold change MCL1,"[2]; 214057_at, in ethanol solution vs untreated",2.12
same,Fold change S100A8,"[2]; 214370_at, in ethanol solution vs untreated",1.9
same,Fold change MTMR1,"[2]; 214975_s_at, in PBS vs untreated",−2.41
same,Fold change probeset 215450_at,"[2]; 215450_at, in ethanol solution vs untreated",1.98
same,Fold change ARPC4,"[2]; 217817_at, in ethanol solution vs untreated",2.03
same,Fold change CENPT,"[2]; 218148_at, in ethanol solution vs untreated",1.94
same,Fold change CLN6,"[2]; 218161_s_at, in ethanol solution vs in PBS",1.94
same,Fold change IGF2BP2,"[2]; 218847_at, in ethanol solution vs untreated",2.02
same,Fold change WDR33,[2]; in ethanol solution vs in PBS,2.79
same,Fold change WDR33,[2]; [5],2.32
same,Fold change IGHD,"[2]; 222285_at, in ethanol solution vs untreated",1.98
same,Fold change probeset 222376_at,"[2]; 222376_at, in ethanol solution vs untreated",2.11
same,up-regulated genes,[2]; in PBS vs untreated,no significantly up-regulated genes
same,number of down-regulated genes,[2]; in ethanol solution compared with in PBS,497 genes
same,fold down-regulation of the down-regulated genes,[2]; [6],2-18 fold
same,number of down-regulated genes,[2]; [6],573 genes
same,lung weight of the living mice,[3]; 100 μg in 5% ethanol in PBS intranasally daily for 30 days,317±103
same,number of dead mice,[3]; [7],a single mouse
same,lung weight of the living mice,[3]; [7],259±84
same,number of dead mice,[3]; [8],four
same,lung weight of the living mice,[3]; [8],501±252
same,lung weight of the living mice,[3]; 100 μg in PBS intranasally daily for 30 days,671±187
same,apoptosis,[4],no more apoptosis than with a control molecule
